Experimental data: US4279915A, “Method of treatment using new leurosine derivatives” (priority 1973, dated 1981)

What was measured:
[1] = tested on: Swiss mice; test: acute toxicity in Swiss mice; format: in vivo, mouse
Excerpt: (§1) ACUTE TOXICITY IN SWISS MICE
(§2) Table III lists the comparative toxicological data concerning Vincristine, Vinblastine and F-leurosine. The new analogue is approximately 7 times less toxic than Vincristine and 4 times less toxic than Vinblastine in acute rodent experiments.

[2] = acute toxicity in Swiss mice; format: in vivo, mouse; conditions: mouse, in vivo, Swiss mice
Excerpt: as §1, §2

[3] = tested on: Yoshida ascites sarcoma; test: antitumor effect on Yoshida ascites sarcoma; format: in vivo
Excerpt: (§3) The treatment extends the life span of animals suffering from L-1210 lymphoid leukemia, s37 ascites sarcoma or Yoshida ascites sarcoma by about 150 to 250 percent.
(§4) EFFECT OF F-LEUROSINE ON ASCITIC TUMORS

[4] = tested on: lymphomas; test: effect of F-leurosine on lymphomas in patients (Table II); format: in vivo, human
Excerpt: Both of Hodgkin patients belonged to the poor risk category.
EFFECT OF F-LEUROSINE ON LYMPHOMAS

[5] = tested on: Harding Passey melanoma; test: growth inhibition of Harding Passey melanoma; format: in vivo
[6] = tested on: lymphoma, leukemia and Hodgkins disease; test: antitumor activity; format: in vivo
[7] = tolerability and therapeutical range in animal tests; format: in vivo
Method: A dose of 0.3 to 5.0 mg./kg. of body weight can also be used in human therapy, although the dosage can be as low as 0.01 mg./kg. daily.

[8] = tested on: solid tumors; test: clinical treatment of patients with solid tumors (Example B); format: in vivo, human; conditions: for decrease of prothrombin index and activity: by the 7th day of treatment
Method: N-formyl-leurosine was administered in form of i.v. injection as single treatment or in 5 and 2×5 day long periods continually to exclusively patients with solid tumors.
Simultaneously adjuvant therapy was applied (analgesics, antibiotics, cardiac drugs, roborants) if necessary.
Following single treatments primarily the effect on blood picture, and especially on leukocyte count was observed. In case of higher total doses given continuously for 5 or 10 days, liver function, enzymes, serum creatinine, uric acid level were also determined. The neurological condition of the patients was also controlled.

[9] = tested on: NK/Ly lymphoma; test: antitumor effect on NK/Ly lymphoma; format: in vivo, mice
Excerpt: (§5) This compound provides complete recovery or a 300 percent extension of life span in 50 to 70 percent of the cases, in tests on mice inoculated with Ehrlich ascites carcinoma or NK/Ly lymphoma.
as §4

[10] = tested on: granulocytes, lymphocytes, platelets; test: haematological parameters; format: in vivo
[11] = tested on: Novikoff; test: antitumor effect on Novikoff ascitic tumor; format: in vivo
Excerpt: |EFFECT OF F-LEUROSINE ON ASCITIC TUMORS

[12] = tested on: leukemia; test: Phase I trial, escalation and evaluation period; format: in vivo, human; conditions: up to 0.05 mg/kg/day i.v. six consecutive days, escalation period
Method: Fourteen patients were treated. The patient selection met the following criteria: (a) all types of leukemia, (b) all patients previously treated without success, (e) no X-ray or chemotherapy was administered four weeks prior to therapy, (d) at least eight weeks follow-up. In the escalation period 0.01 mg/kg/day i.v. was given five consecutive days as initial dose.
DOSAGE OF F-LEUROSINE IN PHASE I TRIAL
In addition, eight patients were added to the group treated on the basis of this schedule.

[13] = tested on: Ehrlich ascites carcinoma; test: antitumor effect on Ehrlich ascites carcinoma; format: in vivo, mice
Excerpt: as §5, §4

[14] = tested on: S 37 ascites sarcoma; test: antitumor effect on S 37 ascites sarcoma; format: in vivo
Excerpt: as §3, §4

[15] = tested on: VX-2 rabbit epitheloma; test: growth inhibition of VX-2 rabbit epitheloma; format: in vivo
[16] = 4 × 3.0 mg/kg i.p. each other day
[17] = 4 × 0.6 mg/kg i.p. each other day

CCC12CN3CCc4c([nH]c5ccccc45)[C@@](C(=O)OC)(c4cc5c(cc4OC)N(C=O)[C@H]4[C@@](O)(C(=O)OC)[C@H](OC(C)=O)[C@]6(CC)C=CCN7CC[C@]54[C@@H]76)C[C@@H](C3)C1O2 (stereo partly drawn) [N-formyl-leurosine]
times less toxic than Vinblastine ([1]; acute rodent experiments): ~4 times | times less toxic than Vincristine ([1]; acute rodent experiments): approximately 7 times | signs of neurotoxicity ([1]; even subluthal doses, experimental animals): did not show any signs of neurotoxicity | toxicity relative to vinblastine ([1]; i.p., on mice (text b8)): about five times less toxic than vinblastine | toxicity relative to vincristine ([1]; i.p., on mice (text b8)): about ten times less toxic than vincristine | LD50 ([2]; ip, 1 x i.p.): 28.8 mg/kg | LD50 ([2]; iv, 1 x i.v.): 32.5 mg/kg | Survival ([3]; 9 × 0.5 mg/kg i.p. daily): 143 | Tumor free ([3]; 9 × 0.5 mg/kg i.p. daily): 0/6 | Survival ([3]; 9 × 1.0 mg/kg i.p. daily): 173 | Tumor free ([3]; 9 × 1.0 mg/kg i.p. daily): 2/6 | Survival ([3]; 9 × 2.0 mg/kg i.p. daily): 243 | Tumor free ([3]; 9 × 2.0 mg/kg i.p. daily): 4/6 | extension of life span ([3]; Yoshida ascites sarcoma, about): 150-250% | X-ray picture of the chest, atelectasia in lower region of right lung ([4]; Hodgkin patient four, before vs after treatment): undoubted improvement | response ([4]; lymphosarcoma patient eight, poor risk): non-responding | palpable lymph nodes ([4]; lymphosarcoma patient five, after second course): all but one of the palpable lymph nodes disappeared | Westergren value after treatment ([4]; lymphosarcoma patient five, 75 mm/hour before the treatment): 12 mm/h | remission ([4]; lymphosarcoma patient three): moderate remission | change in mediastinal pathologic lymph nodes' size and intensity ([4]; lymphosarcoma patient two): not spectacular, but definite | palpable lymph nodes ([4]; lymphosarcoma patient two): The majority of their palpable lymph nodes disappeared | effect ([4]; patient five, course I, Lysc., schedule A): IR>50% | effect ([4]; patient five, course II, Lysc., schedule B): IR<50% | effect ([4]; patient nine, Hodgkin SC., schedule C): IR<50% | effect ([4]; patient one, Rsc., schedule C): IR<50% | effect ([4]; patient three, Lysc., schedule A): IR<50% | effect ([4]; patient two, Lysc., schedule C): IR>50% | sensitivity to treatment ([4]; poor risk Hodgkin patient four): proved to be sensitive | improvement after therapy ([4]; two reticulosarcoma patients, some lymph nodes diminished, softer, more mobile): one showed a moderate improvement after therapy | growth inhibition [5]: remarkable growth inhibition | antitumor activity [6]: favorable antitumor activity | side-effects ([7]; 0.3 to 5.0 mg./kg. for prolonged periods, animals): without causing side-effects characteristic of and unavoidable with the known vinca-alkaloids | therapeutical range compared with vincristine ([7]; animal tests): somewhat similar to that of vincristine | therapeutical range compared with vinleurosine ([7]; animal tests): about four times broader than that of vinleurosine | tumor growth: progress during the treatment ([8]; 0.018 mg/kg during 2×5 days, one case): express progress during the treatment | tumor growth: regression by X-ray and touching ([8]; 0.030 mg/kg during 2×5 days, one case): slight regression | leukocyte count change ([8]; between the 3rd and 5th days): decreased again | leukocyte count level ([8]; between the 3rd and 5th days, remained over): over 3000 | leukocyte count ([8]; between the 9th and 14th days): returns to the initial value | tumor growth: other cases ([8]; continuous administration): No changes were found in other cases | effect on tumor growth ([8]; continuous administration of 0.018-0.035 mg/kg doses): some effect was observed | qualitative blood picture ([8]; dose level presently used): no change was shown | levels of enzymes (serum alk, phosphatase, SGOT, SGPT) ([8]; during the treatment): did not essentially change | leukocyte count ([8]; first 48 hours): increased | liver function, urinalysis, serum creatinine and uric acid levels ([8]; human, in vivo): no changes or signs indicating toxicity were found | neurological side-effects ([8]; human, in vivo): not observed | decrease of prothrombin index and activity ([8]; one case): 50% | prothrombin-time, increase ([8]; six cases): increased in three cases out of six | prothrombin time, decrease ([8]; two cases): very slightly decreased | decrease of prothrombin index and activity ([8]; two cases): 37% | extension of life span [9]: 300% | Survival ([9]; 8 × 0.5 mg/kg i.p. daily): 250 | Tumor free ([9]; 8 × 0.5 mg/kg i.p. daily): 2/10 | lowering of number of granulocytes ([10]; 0.6 mg/kg): 50% | number of lymphocytes ([10]; 15 mg/kg): decreased only after administration of 15 mg/kg | platelet count ([10]; similar dose level): No significant changes | Survival [11, 16]: 196 | Tumor free [11, 16]: 1/6 | Survival ([11]; 6 × 2.0 mg/kg i.p. daily): 166 | Tumor free ([11]; 6 × 2.0 mg/kg i.p. daily): 0/6 | antitumor activity [12]: striking antitumor activity | signs of toxicity [12]: without signs of toxicity | extension of life span [13]: 300% | Survival [13, 17]: 288 | Tumor free [13, 17]: 7/10 | Survival ([13]; 7 × 3.0 mg/kg i.p. daily): 244 | Tumor free ([13]; 7 × 3.0 mg/kg i.p. daily): 3/10 | Survival ([13]; 24 × 0.15 mg/kg i.p. daily): 118 | Tumor free ([13]; 24 × 0.15 mg/kg i.p. daily): 3/10 | Tumor free ([14]; 4 × 2.5 mg/kg i.p. daily): 4/6 | Tumor inhibition ([14]; 4 × 2.5 mg/kg i.p. daily): 100 | Survival ([14]; 8 × 1.0 mg/kg i.p. daily): 268 | Tumor free ([14]; 8 × 1.0 mg/kg i.p. daily): 1/6 | extension of life span ([14]; s37 ascites sarcoma, about): 150-250% | growth inhibition [15]: remarkable growth inhibition
